Test results published in patent publication US4581377A, “Fluorene derivatives” (Nippon Shinyaku Co., Ltd., priority 1983, dated 1986).
Like-named read-outs stand apart in the source and are kept apart here.

Columns and labels:
carrageenin edema = assay: Effect on carrageenin edema; assay type: in vivo, rat (male, SD strain); conditions: Rattus norvegicus, po, read-out: Inhibition against Carrageenin edema ED30
Procedure: (Effect on carrageenin edema) One group consisting of 5 male rats of SD strain and of five weeks age was used in the experiment. Compounds to be tested were given orally and, three hours thereafter, 0.1 ml of 0.5% λ-carrageenin was injected at the right hind paw subcutaneously. After three hours, volume of the right hind paw was measured using a plethysmometer, then the volume of the hind paw before the carrageenin injection was deducted from the above measured value to obtain the degree of swelling (in ml), the average swelling inhibition rate of the groups treated with the compounds as compared with the control group was calculated and, using a method of least squares, ED30 was determined.

acetic acid writhing = assay: Acetic acid Writhing Method; assay type: in vivo, mouse (male, ddY strain); conditions: Mus musculus, read-out: Inhibition against Acetic acid writhing ED30
[1] = Action for formation of ulcer; set-up: species or system rat (male, SD strain); conditions: rat, in vivo, po
Procedure: (Action for formation of ulcer)
Male rats (SD strain) of five weeks age were fasted for 24 hours and the test compound (as a suspension in CMC; 0.5% concentration) was given orally at a dose of 1 ml/100 g body weight. After 24 hours, 5% pontamine sky blue (0.5 ml) was injected intravenously and, ten minutes thereafter, the rats were killed by anesthetizing with ether and their stomachs were removed therefrom. […] When at least one ulcer was observed, the ulcer formation was decided to be positive and, according to a Weil's method (four rats per group), UD50 (50% ulcer-forming dose) was determined.

Acute Toxicity = conditions: rat, in vivo; rats, p.o.; seven days after oral administration
Procedure: Four male rats (SD strain) of six weeks age were used as a group and the LD50 values seven days after oral administration was calculated by Weil's method.

[2] = rats, p.o., compound 3 h before carrageenin, paw volume after 3 h
[3] = mice, i.p. (head), 0.6% acetic acid i.p. 3 h after oral compound (method), writhings over 20 min

SMILES	ED30 (carrageenin edema; [2]) [mg/kg]	ED30 (acetic acid writhing; [3]) [mg/kg]	TD50 at 24 h [1] [mg/kg]	LD50 at 168 h (Acute Toxicity) [mg/kg]	ED30 (carrageenin edema; 3 h) [mg/kg]	ED30 (acetic acid writhing; po) [mg/kg]	TD50 at 24 h ([1]; rats, p.o., 24 h fasted, stomach observed 24 h after dosing, read-out: UD50 (50% ulcer-forming dose)) [mg/kg]
CC(O)C=Cc1ccc2c(c1)Cc1ccccc1-2 (stereo not shown) [Example 2, 4-(2-fluorenyl)-3-buten-2-ol]	28.3	1.8	90	1680			
CC(=O)CCc1ccc2c(c1)Cc1ccccc1-2 [Example 3, 4-(2-fluorenyl)-butan-2-one]	12.5	37.2	182	> 2000			
CC(O)CCc1ccc2c(c1)Cc1ccccc1-2 (stereo not shown) [Example 9, 4-(2-Fluorenyl)-butan-2-ol]	17.3	18.4	68.4	> 2000			
COc1ccc2c(c1)c(CC(=O)O)c(C)n2C(=O)c1ccc(Cl)cc1 [Indomethacin, reference compound]				29	7.1	2.3	4
